Laboratory results as given in USRE48097E1, “Cephem compounds, their production and use” (priority 2015, dated 2020).
Values after ≈ are worked out from the molar mass of the structure shown. Like-named read-outs stand apart in the source and are kept apart here.

Columns and labels:
[1] = tested on: E. cloacae 2705; experiment: MIC against E. cloacae 2705; assay type: cell-based; settings: Table 3, E. cloacae 2705, VIM-1, KPC-3type
Protocol: (§1) As shown, the foregoing composition was tested for minimum inhibitory concentration (MIC, μg/mL) against bacteria listed in Tables 2-3.

[2] = tested on: S. pneumoniae 2492; experiment: MIC against S. pneumoniae 2492; assay type: cell-based; settings: Table 2, S. pneumoniae 2492, Pen R
From the text: (§2) Without limitation, the present cephem compounds alone, or in combination with one or more β-lactamase inhibitors, may provide improved antibacterial efficacy, particularly in antibiotic-resistant bacterial strains. It is believed that the present compounds may be structurally different from known compounds and, as a result, may be more basic in nature. It is an advantage that the present compounds may extend the spectrum of effective bacterial compounds, particularly against previously-resistant bacteria (e.g. ESKAPE organisms), and/or gram negative bacteria, without significant side effects. In a preferred embodiment, the present cephem compound may comprise reference compound ceftazidime, which may be used alone, or in combination with one or more β-lactamase inhibitors, such as NXL-104. As shown, the foregoing composition was tested for minimum inhibitory concentration (MIC, μg/mL) against bacteria listed in Tables 2-3.

[3] = tested on: E. cloacae 2044; experiment: MIC against E. cloacae 2044; assay type: cell-based; settings: Table 2, E. cloacae 2044, Caz S, IMP S
From the text: as §2

[4] = tested on: K. baumanii 4094; experiment: MIC against K. baumanii 4094; assay type: cell-based; settings: Table 2, K. baumanii 4094, OXA-51
From the text: as §2

[5] = tested on: E. coli 4101; experiment: MIC against E. coli 4101; assay type: cell-based; settings: Table 2, E. coli 4101, CTX-M-14, TEM-1
From the text: as §2

[6] = tested on: K. pneumoniae 2712; experiment: MIC against K. pneumoniae 2712; assay type: cell-based; settings: Table 3, K. pneumoniae 2712, KPC-3, VIM-1
Protocol: as §1

[7] = tested on: K. pneumoniae 2689; experiment: MIC against K. pneumoniae 2689; assay type: cell-based; settings: K. pneumoniae 2689, KPC-2
Protocol: as §1

[8] = tested on: E. coli 4098; experiment: MIC against E. coli 4098; assay type: cell-based; settings: Table 2, E. coli 4098, CTX-M-15, TEM-1
From the text: as §2

[9] = tested on: S. aureus3137; experiment: MIC against S. aureus3137; assay type: cell-based, S. aureus; settings: Table 2, S. aureus3137, MSSA
From the text: as §2

[10] = tested on: S. aureus 3144; experiment: MIC against S. aureus 3144; assay type: cell-based; settings: Table 2, S. aureus 3144, MSSA
From the text: as §2

[11] = tested on: K. pneumoniae 4108; experiment: MIC against K. pneumoniae 4108; assay type: cell-based; settings: K. pneumoniae 4108, KPC-3, TEM-166, SHV-12, SHV-141
Protocol: as §1

[12] = tested on: E. coli 102; experiment: MIC against E. coli 102; assay type: cell-based; settings: Table 2, E. coli 102, TEM-1
From the text: as §2

[13] = tested on: S. pneumoniae 2406; experiment: MIC against S. pneumoniae 2406; assay type: cell-based; settings: Table 2, S. pneumoniae 2406, Pen S
From the text: as §2

[14] = tested on: C. freundii 15; experiment: MIC against C. freundii 15; assay type: cell-based; settings: Table 2, C. freundii 15, Caz R, IMP S
From the text: as §2

[15] = tested on: E. cloacae 2709; experiment: MIC against E. cloacae 2709; assay type: cell-based; settings: Table 3, E. cloacae 2709, KPC-3, VIM-1
Protocol: as §1

[16] = tested on: K. pneumoniae 4105; experiment: MIC against K. pneumoniae 4105; assay type: cell-based; settings: K. pneumoniae 4105, KPC-3, TEM-1, SHV-11
Protocol: as §1

[17] = tested on: P. aeruginosa 2573; experiment: MIC against P. aeruginosa 2573; assay type: cell-based; settings: Table 2, P. aeruginosa 2573, OXA-10 (Class D)
From the text: as §2

[18] = tested on: E. cloacae 2706; experiment: MIC against E. cloacae 2706; assay type: cell-based; settings: Table 3, E. cloacae 2706, VIM-1, KPC-3
Protocol: as §1

[19] = tested on: M. morganii 2409; experiment: MIC against M. morganii 2409; assay type: cell-based; settings: Table 2, M. morganii 2409, High level cephase, β-Lactamase producing
From the text: as §2

[20] = tested on: K. pneumoniae 2697; experiment: MIC against K. pneumoniae 2697; assay type: cell-based; settings: Table 2, K. pneumoniae 2697, IMP-4
From the text: as §2

[21] = tested on: K. pneumoniae 4104; experiment: MIC against K. pneumoniae 4104; assay type: cell-based; settings: K. pneumoniae 4104, KPC-3, TEM-1
Protocol: as §1

[22] = tested on: E. coli 2671; experiment: MIC against E. coli 2671; assay type: cell-based; settings: Table 2, E. coli 2671, VIM-19
From the text: as §2

[23] = tested on: E. cloacae596; experiment: MIC against E. cloacae596; assay type: cell-based, E. cloacae; settings: Table 2, E. cloacae596, Caz R, IMP S
From the text: as §2

[24] = Enterobacter cloacae, alone, read-out: MIC
[25] = Streptococcus pneumoniae, alone, read-out: MIC
[26] = Escherichia coli, alone, read-out: MIC
[27] = Klebsiella pneumoniae, alone, read-out: MIC
[28] = Table 2, in combination with NXL-104
[29] = Table 3, in combination with NXL-104
[30] = Staphylococcus aureus, alone, read-out: MIC

- MIC [1, 24]: > 32 µg/mL
- MIC ([1]; in combination with NXL-104): >32 µg/mL
- MIC [2, 25]: 2 µg/mL
- MIC ([2]; in combination with NXL-104): 2.00 µg/mL
- MIC [3, 24]: 0.12 µg/mL
- MIC ([3]; in combination with NXL-104): ≤0.06 µg/mL
- MIC ([4]; alone, read-out: MIC): 16 µg/mL
- MIC ([4]; in combination with NXL-104): 8.00 µg/mL
- MIC [5, 26]: 0.5 µg/mL
- MIC ([5]; in combination with NXL-104): ≤0.06 µg/mL
- MIC [6, 27]: > 32 µg/mL
- MIC ([6]; in combination with NXL-104): 4 µg/mL
- MIC ([7]; Klebsiella pneumoniae, 2689, Table 2, alone, read-out: MIC): 16 µg/mL (≈ 22.6 µM)
- MIC ([7]; Klebsiella pneumoniae, 2689, Table 3, alone, read-out: MIC): 16 µg/mL (≈ 22.6 µM)
- MIC [7, 28]: 1.00 µg/mL
- MIC [7, 29]: 1 µg/mL
- MIC [8, 26]: 32 µg/mL
- MIC ([8]; in combination with NXL-104): 0.12 µg/mL
- MIC [9, 30]: 32 µg/mL
- MIC ([9]; in combination with NXL-104): 8.00 µg/mL
- MIC [10, 30]: 8 µg/mL
- MIC ([10]; in combination with NXL-104): 8.00 µg/mL
- MIC ([11]; Klebsiella pneumoniae, 4108, Table 2, alone, read-out: MIC): 16 µg/mL (≈ 22.6 µM)
- MIC ([11]; Klebsiella pneumoniae, 4108, Table 3, alone, read-out: MIC): 32 µg/mL (≈ 45.2 µM)
- MIC [11, 28]: 0.50 µg/mL
- MIC [11, 29]: 1 µg/mL
- MIC [12, 26]: ≤ 0.06 µg/mL
- MIC ([12]; in combination with NXL-104): ≤0.06 µg/mL
- MIC [13, 25]: ≤ 0.06 µg/mL
- MIC ([13]; in combination with NXL-104): ≤0.06 µg/mL
- MIC ([14]; Citrobacter freundii, alone, read-out: MIC): 8 µg/mL
- MIC ([14]; in combination with NXL-104): 0.50 µg/mL
- MIC [15, 24]: 32 µg/mL (≈ 45.2 µM)
- MIC ([15]; in combination with NXL-104): 4 µg/mL
- MIC ([16]; Klebsiella pneumoniae, 4105, Table 2, alone, read-out: MIC): 32 µg/mL (≈ 45.2 µM)
- MIC ([16]; Klebsiella pneumoniae, 4105, Table 3, alone, read-out: MIC): 32 µg/mL (≈ 45.2 µM)
- MIC [16, 28]: 1.00 µg/mL
- MIC [16, 29]: 2 µg/mL
- MIC ([17]; Pseudomonas aeruginosa, alone, read-out: MIC): 2 µg/mL
- MIC ([17]; in combination with NXL-104): 2.00 µg/mL
- MIC [18, 24]: > 32 µg/mL
- MIC ([18]; in combination with NXL-104): 32 µg/mL
- MIC ([19]; Morganella morganii, alone, read-out: MIC): 16 µg/mL
- MIC ([19]; in combination with NXL-104): 1.00 µg/mL
- MIC [20, 27]: 16 µg/mL
- MIC ([20]; in combination with NXL-104): 0.50 µg/mL
- MIC ([21]; Klebsiella pneumoniae, 4104, Table 2, alone, read-out: MIC): 32 µg/mL (≈ 45.2 µM)
- MIC ([21]; Klebsiella pneumoniae, 4104, Table 3, alone, read-out: MIC): 32 µg/mL (≈ 45.2 µM)
- MIC [21, 28]: 2.00 µg/mL
- MIC [21, 29]: 0.5 µg/mL
- MIC [22, 26]: 32 µg/mL
- MIC ([22]; in combination with NXL-104): 32.00 µg/mL
- MIC [23, 24]: 8 µg/mL
- MIC ([23]; in combination with NXL-104): 0.50 µg/mL
SMILES: CC(C)(O/N=C(\C(=O)N[C@@H]1C(=O)N2C(C(=O)[O-])=C(C[n+]3ccc4c(ccn4Cc4cc(C(=N)N)co4)c3)CS[C@H]12)c1csc(N)n1)C(=O)O [Example 6, (6R,7R)-7-{[(2Z)-2-(2-Amino-1,3-thiazol-4-yl)-2-{[(2-carboxypropan-2-yl)oxy]imino}acetyl]amino}-3-({1-[(4-carbamimidoylfuran-2-yl)methyl]-1H-pyrrolo[3,2-c]pyridin-5-ium-5-yl}methyl)-8-oxo-5-thia-1-azabicyclo[4.2.0]oct-2-ene-2-carboxylate]
